Read-outs that look alike come from different tables or passages of the source.
What was measured:
[1] = system: NCI/ADR-RES; experiment: NCI in-vitro testing, NCI/ADR-RES (Breast Cancer)
[2] = system: OVCAR-4; experiment: NCI in-vitro testing, OVCAR-4 (Ovarian Cancer)
[3] = system: OVCAR-3; experiment: NCI in-vitro testing, OVCAR-3 (Ovarian Cancer)
[4] = system: A498; experiment: NCI in-vitro testing, A498 (Renal Cancer)
[5] = system: LOX IMVI; experiment: NCI in-vitro testing, LOX IMVI (Melanoma)
[6] = system: NCI-H522; experiment: NCI in-vitro testing, NCI-H522 (Non-Small Cell Lung Cancer)
[7] = system: UO-31; experiment: NCI in-vitro testing, UO-31 (Renal Cancer)
[8] = system: H322 cells; experiment: Cell viability, H322 lung cancer cells; format: cell-based, human; conditions: Homo sapiens, NCI-H322; H322, Lung; read-out: IC50 (−LogM) (converted)
[9] = system: NCI-H226; experiment: NCI in-vitro testing, NCI-H226 (Non-Small Cell Lung Cancer)
[10] = system: ACHN; experiment: NCI in-vitro testing, ACHN (Renal Cancer)
[11] = system: NCI-H23; experiment: NCI in-vitro testing, NCI-H23 (Non-Small Cell Lung Cancer)
[12] = system: SNB-19; experiment: NCI in-vitro testing, SNB-19 (CNS Cancer)
[13] = system: SK-MEL-28; experiment: NCI in-vitro testing, SK-MEL-28 (Melanoma)
[14] = system: SF-539; experiment: NCI in-vitro testing, SF-539 (CNS Cancer)
[15] = system: HCT-116; experiment: NCI in-vitro testing, HCT-116 (Colon Cancer)
[16] = Homo sapiens, read-out: Log10 GI50 (converted)

`OCc1cn(Cc2ccc(Cl)cc2)c2ccccc12` [Oncrasin K060, 1H-Indole-3-methanol, 1-[(4-chlorophenyl)methyl]-] gave a TGI [1] of 3.32E−5 Molar, a GI50 ([1]; Homo sapiens) of 9.22 µM and a CC50 ([1]; Homo sapiens, read-out: LC50) greater than 100 µM. The GI50 [1, 16] was 9.12 µM, the “Percent Growth” value ([1]; Log10 Concentration −4.0 Molar) was −45% and the “Percent Growth” value ([1]; Log10 Concentration −5.0 Molar) was 49%. The “Percent Growth” value ([1]; Log10 Concentration −6.0 Molar) was 86%, the “Percent Growth” value ([1]; Log10 Concentration −7.0 Molar) was 94% and the “Percent Growth” value ([1]; Log10 Concentration −8.0 Molar) was 103%. It also gave a GI50 ([2]; Homo sapiens, OVCAR-4) of 0.34 µM, a CC50 ([2]; Homo sapiens, OVCAR-4, read-out: LC50) greater than 100 µM and a GI50 ([2]; Homo sapiens, OVCAR-4, read-out: Log10 GI50 (converted)) of 0.339 µM. For the same compound, the TGI ([2]; OVCAR-4) was 1.80E−5 Molar, the “Percent Growth” value ([2]; OVCAR-4, Log10 Concentration −4.0 Molar) was −29% and the “Percent Growth” value ([2]; OVCAR-4, Log10 Concentration −5.0 Molar) was 10%. The “Percent Growth” value ([2]; OVCAR-4, Log10 Concentration −6.0 Molar) was 31%, the “Percent Growth” value ([2]; OVCAR-4, Log10 Concentration −7.0 Molar) was 71% and the “Percent Growth” value ([2]; OVCAR-4, Log10 Concentration −8.0 Molar) was 94%. It also gave a GI50 ([3]; Homo sapiens, OVCAR-3) of 0.569 µM, a CC50 ([3]; Homo sapiens, OVCAR-3, read-out: LC50) of 69.1 µM and a GI50 ([3]; Homo sapiens, OVCAR-3, read-out: Log10 GI50 (converted)) of 0.575 µM. For the same compound, the TGI ([3]; OVCAR-3) was 1.03E−5 Molar, the “Percent Growth” value ([3]; OVCAR-3, Log10 Concentration −4.0 Molar) was −60% and the “Percent Growth” value ([3]; OVCAR-3, Log10 Concentration −5.0 Molar) was 1%. The “Percent Growth” value ([3]; OVCAR-3, Log10 Concentration −6.0 Molar) was 42%, the “Percent Growth” value ([3]; OVCAR-3, Log10 Concentration −7.0 Molar) was 77% and the “Percent Growth” value ([3]; OVCAR-3, Log10 Concentration −8.0 Molar) was 95%. The TGI ([4]; A498) was 3.33E−8 Molar, the “Percent Growth” value ([4]; A498, Log10 Concentration −4.0 Molar) was −94% and the “Percent Growth” value ([4]; A498, Log10 Concentration −5.0 Molar) was −95%. The “Percent Growth” value ([4]; A498, Log10 Concentration −6.0 Molar) was −87%, the “Percent Growth” value ([4]; A498, Log10 Concentration −7.0 Molar) was −56% and the “Percent Growth” value ([4]; A498, Log10 Concentration −8.0 Molar) was 61%. It also gave a GI50 ([4]; Homo sapiens, A498) of 0.0124 µM, a CC50 ([4]; Homo sapiens, A498, read-out: LC50) of 0.089 µM and a GI50 ([4]; Homo sapiens, A498, read-out: Log10 GI50 (converted)) of 0.0123 µM. It also gave a TGI [5] of 1.58E−6 Molar, a GI50 ([5]; Homo sapiens) of 4.48 µM and a CC50 ([5]; Homo sapiens, read-out: LC50) of 47.2 µM. For the same compound, the GI50 [5, 16] was 4.47 µM, the “Percent Growth” value ([5]; Log10 Concentration −4.0 Molar) was −86% and the “Percent Growth” value ([5]; Log10 Concentration −5.0 Molar) was 26%. The “Percent Growth” value ([5]; Log10 Concentration −6.0 Molar) was 96%, the “Percent Growth” value ([5]; Log10 Concentration −7.0 Molar) was 96% and the “Percent Growth” value ([5]; Log10 Concentration −8.0 Molar) was 102%. For the same compound, the TGI [6] was 1.24E−5 Molar, the GI50 ([6]; Homo sapiens, NCI-H522) was 2.41 µM and the CC50 ([6]; Homo sapiens, NCI-H522, read-out: LC50) was 51 µM. For the same compound, the GI50 ([6]; Homo sapiens, NCI-H522, read-out: Log10 GI50 (converted)) was 2.4 µM, the “Percent Growth” value ([6]; Log10 Concentration −4.0 Molar) was −74% and the “Percent Growth” value ([6]; Log10 Concentration −5.0 Molar) was 7%. For the same compound, the “Percent Growth” value ([6]; Log10 Concentration −6.0 Molar) was 76%, the “Percent Growth” value ([6]; Log10 Concentration −7.0 Molar) was 82% and the “Percent Growth” value ([6]; Log10 Concentration −8.0 Molar) was 91%. It also gave a GI50 ([7]; Homo sapiens, UO-31) of 1.58 µM, a CC50 ([7]; Homo sapiens, UO-31, read-out: LC50) greater than 100 µM and a GI50 ([7]; Homo sapiens, UO-31, read-out: Log10 GI50 (converted)) of 1.58 µM. For the same compound, the TGI ([7]; UO-31) was 1.55E−5 Molar, the “Percent Growth” value ([7]; UO-31, Log10 Concentration −4.0 Molar) was −42% and the “Percent Growth” value ([7]; UO-31, Log10 Concentration −5.0 Molar) was 10%. The “Percent Growth” value ([7]; UO-31, Log10 Concentration −6.0 Molar) was 60%, the “Percent Growth” value ([7]; UO-31, Log10 Concentration −7.0 Molar) was 80% and the “Percent Growth” value ([7]; UO-31, Log10 Concentration −8.0 Molar) was 90%. The IC50 [8] was 31.6 µM, the GI50 ([9]; Homo sapiens, NCI-H226) was less than 0.01 µM and the CC50 ([9]; Homo sapiens, NCI-H226, read-out: LC50) was 0.501 µM. For the same compound, the GI50 ([9]; Homo sapiens, NCI-H226, read-out: Log10 GI50 (converted)) was less than 0.01 µM, the TGI ([9]; NCI-H226) was 4.48E−8 Molar and the “Percent Growth” value ([9]; NCI-H226, Log10 Concentration −4.0 Molar) was −65%. The “Percent Growth” value ([9]; NCI-H226, Log10 Concentration −5.0 Molar) was −68%, the “Percent Growth” value ([9]; NCI-H226, Log10 Concentration −6.0 Molar) was −82% and the “Percent Growth” value ([9]; NCI-H226, Log10 Concentration −7.0 Molar) was −22%. The “Percent Growth” value ([9]; NCI-H226, Log10 Concentration −8.0 Molar) was 40%, the TGI [10] was 2.25E−5 Molar and the GI50 ([10]; Homo sapiens) was 2 µM. For the same compound, the CC50 ([10]; Homo sapiens, read-out: LC50) was greater than 100 µM, the GI50 [10, 16] was 2.63 µM and the “Percent Growth” value ([10]; Log10 Concentration −4.0 Molar) was −30%. The “Percent Growth” value ([10]; Log10 Concentration −5.0 Molar) was 10%, the “Percent Growth” value ([10]; Log10 Concentration −6.0 Molar) was 75% and the “Percent Growth” value ([10]; Log10 Concentration −7.0 Molar) was 92%. The “Percent Growth” value ([10]; Log10 Concentration −8.0 Molar) was 99%, the GI50 ([11]; Homo sapiens, NCI-H23) was 2.9 µM and the CC50 ([11]; Homo sapiens, NCI-H23, read-out: LC50) was 71.1 µM. The GI50 ([11]; Homo sapiens, NCI-H23, read-out: Log10 GI50 (converted)) was 2.88 µM, the TGI ([11]; NCI-H23) was 2.10E−5 Molar and the “Percent Growth” value ([11]; NCI-H23, Log10 Concentration −4.0 Molar) was −54%. The “Percent Growth” value ([11]; NCI-H23, Log10 Concentration −5.0 Molar) was 31%, the “Percent Growth” value ([11]; NCI-H23, Log10 Concentration −6.0 Molar) was 67% and the “Percent Growth” value ([11]; NCI-H23, Log10 Concentration −7.0 Molar) was 82%. For the same compound, the “Percent Growth” value ([11]; NCI-H23, Log10 Concentration −8.0 Molar) was 94%, the GI50 ([12]; Homo sapiens, SNB-19) was 17.6 µM and the CC50 ([12]; Homo sapiens, SNB-19, read-out: LC50) was greater than 100 µM. The GI50 ([12]; Homo sapiens, SNB-19, read-out: Log10 GI50 (converted)) was 17.8 µM, the TGI ([12]; SNB-19) was 5.69E−5 Molar and the “Percent Growth” value ([12]; SNB-19, Log10 Concentration −4.0 Molar) was −24%. For the same compound, the “Percent Growth” value ([12]; SNB-19, Log10 Concentration −5.0 Molar) was 74%, the “Percent Growth” value ([12]; SNB-19, Log10 Concentration −6.0 Molar) was 91% and the “Percent Growth” value ([12]; SNB-19, Log10 Concentration −7.0 Molar) was 97%. The “Percent Growth” value ([12]; SNB-19, Log10 Concentration −8.0 Molar) was 103%, the GI50 ([13]; Homo sapiens, SK-MEL-28) was 18 µM and the CC50 ([13]; Homo sapiens, SK-MEL-28, read-out: LC50) was greater than 100 µM. The GI50 ([13]; Homo sapiens, SK-MEL-28, read-out: Log10 GI50 (converted)) was 17.8 µM, the TGI ([13]; SK-MEL-28) was 4.44E−5 Molar and the “Percent Growth” value ([13]; SK-MEL-28, Log10 Concentration −4.0 Molar) was −15%. The “Percent Growth” value ([13]; SK-MEL-28, Log10 Concentration −5.0 Molar) was 82%, the “Percent Growth” value ([13]; SK-MEL-28, Log10 Concentration −6.0 Molar) was 93% and the “Percent Growth” value ([13]; SK-MEL-28, Log10 Concentration −7.0 Molar) was 99%. The “Percent Growth” value ([13]; SK-MEL-28, Log10 Concentration −8.0 Molar) was 93%, the GI50 ([14]; Homo sapiens, SF-539) was 10.9 µM and the CC50 ([14]; Homo sapiens, SF-539, read-out: LC50) was 60 µM. For the same compound, the GI50 ([14]; Homo sapiens, SF-539, read-out: Log10 GI50 (converted)) was 11 µM, the TGI ([14]; SF-539) was 2.70E−5 Molar and the “Percent Growth” value ([14]; SF-539, Log10 Concentration −4.0 Molar) was −73%. For the same compound, the “Percent Growth” value ([14]; SF-539, Log10 Concentration −5.0 Molar) was 55%, the “Percent Growth” value ([14]; SF-539, Log10 Concentration −6.0 Molar) was 104% and the “Percent Growth” value ([14]; SF-539, Log10 Concentration −7.0 Molar) was 110%. For the same compound, the “Percent Growth” value ([14]; SF-539, Log10 Concentration −8.0 Molar) was 108%, the TGI ([15]; HCT-116) was 1.06E−5 Molar and the “Percent Growth” value ([15]; HCT-116, Log10 Concentration −4.0 Molar) was −64%. For the same compound, the “Percent Growth” value ([15]; HCT-116, Log10 Concentration −5.0 Molar) was 2%, the “Percent Growth” value ([15]; HCT-116, Log10 Concentration −6.0 Molar) was 10% and the “Percent Growth” value ([15]; HCT-116, Log10 Concentration −7.0 Molar) was 30%. For the same compound, the “Percent Growth” value ([15]; HCT-116, Log10 Concentration −8.0 Molar) was 68%, the GI50 ([15]; Homo sapiens, HCT-116) was 0.0204 µM and the CC50 ([15]; Homo sapiens, HCT-116, read-out: LC50) was 6.06 µM. For the same compound, the GI50 ([15]; Homo sapiens, HCT-116, read-out: Log10 GI50 (converted)) was 0.0295 µM.

Reference: patent US8883841B2, “Oncogenic ras-specific cytotoxic compound and methods of use thereof” (The Board of Regents of the University of Texas System, priority 2005, dated 2014)
